Results from patent US12036226B2, “Methods of treating subjects having diabetes with chronic kidney disease” (Poxel SA, priority 2018, dated 2024).

System: acute renal failure (ARF) rat model
Conditions: for plasma glucose: normal rats, 180 minutes, imeglimin and metformin 100 mg/h/kg, phenformin 50 mg/h/kg i.v.
Experimental: The creatinine level, correlated with the degree of the renal function failure, was tested for each rat 7 days after the first injection of gentamicin. […] The creatinine level was determined on the Monarch Chemistry Systems using the IL Test creatinine in rat plasma samples. This monochromatic analysis is based on the formation of a red colored complex between creatinine and picric acid under alkaline conditions.

Structure (SMILES)	plasma glucose [mmol/L]	effect on plasma [HCO3−] (rat, in vivo)	effect on plasma lactate (rat, in vivo)	effect on plasma lactate level (rat, in vivo)	lactic acidosis (rat, in vivo)	plasma H+ concentration / metabolic acidosis signs (rat, in vivo)	plasma accumulation (rat, in vivo)	plasma glucose after sharp fall (rat, in vivo) [mmol/L]
CN(C)C(=N)N=C(N)N [metformin]	4 ± 0.7	significantly decreased plasma concentration of [HCO3^−]	significantly increased plasma lactate	significantly increased lactatemia	induced lactic acidosis	increased significantly plasma H+ concentration	plasma accumulation of metformin and imeglimin was observed	1.9 ± 1
[H]/N=C(/N)N/C(=N/[H])NCCc1ccccc1 [phenformin]	2.9 ± 1	significantly decreased plasma concentration of [HCO3^−]	significantly increased plasma lactate	significantly increased lactatemia	induced lactic acidosis	increased significantly plasma H+ concentration		2.4 ± 1.1
